OC[C@H]1O[C@H](O[C@]2(CCl)O[C@H](CCl)[C@@H](O)[C@@H]2O)[C@H](O)[C@@H](O)[C@H]1Cl
solubility (mole fraction)
Conditions	in ethanol	in isopropanol	in methanol	in water
283.15 K	0.00843	–	0.0307	0.0107
288.15 K	0.00976	0.00389	0.0315	0.0115
293.15 K	0.012	0.0044	0.0328	0.0123
298.15 K	0.0143	0.00533	0.0343	0.0146
303.15 K	0.0158	0.00624	0.0362	0.0164
308.15 K	0.0184	0.00789	0.0383	0.0182
313.15 K	0.0202	0.00854	0.0415	0.0195
318.15 K	0.0228	0.011	0.0449	0.0223
323.15 K	0.0248	0.0128	0.0485	0.0259
328.15 K	0.0281	0.015	0.0524	0.0285
333.15 K	0.0322	0.0171	0.0596	0.0314

Source: BigSolDB 2.1
